Source: patent publication US10703746B2, “Mutant IDH1 inhibitors useful for treating cancer” (THE UNITED STATES OF AMERICA, AS REPRESENTED BY THE …, priority 2014, dated 2020)

How the values were obtained:
IDH1 R132C = IDH1 R132C (Homo sapiens, UniProt O75874, R132C); experiment: IDH1 R132C enzymatic assay (NADPH depletion coupled to diaphorase/resazurin); format: biochemical; settings: IDH1 R132C enzymatic inhibition, IC50 class
Summary of the method: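 NADPH depletion, read via diaphorase/resazurin coupling, after adding substrate at 0.6 mM α-KG and 0.012 mM NADPH. Beforehand, 0.00032 mg/mL enzyme sat with compound 30 min at room temperature in pH 6.5 potassium phosphate buffer with MgCl2, glycerol and BSA.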

IDH1 R132H = IDH1 R132H (Homo sapiens, UniProt O75874, R132H); experiment: IDH1 R132H enzymatic assay (NADPH depletion coupled to diaphorase/resazurin); format: biochemical; settings: IDH1 R132H enzymatic inhibition, IC50 class
IDH1 R132H, sequence (O75874 whole entry R132H): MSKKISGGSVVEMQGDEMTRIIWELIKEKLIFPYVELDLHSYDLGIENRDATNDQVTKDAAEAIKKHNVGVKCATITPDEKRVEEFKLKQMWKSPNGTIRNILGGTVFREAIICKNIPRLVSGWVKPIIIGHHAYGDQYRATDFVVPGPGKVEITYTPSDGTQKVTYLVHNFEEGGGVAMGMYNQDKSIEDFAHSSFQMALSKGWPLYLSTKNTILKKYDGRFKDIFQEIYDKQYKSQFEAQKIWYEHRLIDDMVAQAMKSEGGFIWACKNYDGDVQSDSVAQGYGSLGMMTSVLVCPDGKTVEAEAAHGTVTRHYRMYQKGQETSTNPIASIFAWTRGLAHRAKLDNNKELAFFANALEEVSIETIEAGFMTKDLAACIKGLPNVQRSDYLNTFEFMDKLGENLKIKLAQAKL

IDH1 R132C, sequence (O75874 whole entry R132C): as the sequence (O75874 whole entry R132H) above, with H132C counted along it

| IC50 (IDH1 R132C) [nM] | IC50 (IDH1 R132H) [nM] | SMILES |
| --- | --- | --- |
| 300 to 1000 | 300 to 1000 | CCc1cccc(CC)c1-n1c(CC(C)C)c(C(=O)N2CCNCC2)cc(-c2nc(-c3ccc(OC)cc3)c(C)s2)c1=O [Compound 224] |
| 1000 to 5000 | 1000 to 5000 | COc1ccc(OC)c(-n2c3c(cc(-c4nc(-c5ccccc5)cs4)c2=O)C(=O)CC(C)(C)C3)c1 [Compound 225] |
| 1000 to 5000 | 1000 to 5000 | CCc1cccc(CC)c1-n1c2c(cc(-c3nc(-c4ccccc4F)cs3)c1=O)C(=O)CC(C)(C)C2 [Compound 226] |
| 5000 to 20000 | 5000 to 20000 | CC1(C)CC(=O)c2cc(-c3nc(-c4ccc(Cl)cc4)cs3)c(=O)n(-c3ccccc3C(=O)O)c2C1 [Compound 227] |
| > 20000 | > 20000 | CCc1cccc(CC)c1-n1c2c(cc(-c3nc(-c4cccc(C(F)(F)F)c4)cs3)c1=O)C(=O)CC(C)(C)C2 [Compound 228] |
| < 300 | 300 to 1000 | CCc1cccc(CC)c1-n1c(C(C)C)c(C(=O)N2CCN[C@@H](CO)C2)cc(-c2nc(-c3ccc(Cl)cc3)cs2)c1=O [Compound 229] |
| 1000 to 5000 | 5000 to 20000 | CCc1cccc(CC)c1-n1c2c(cc(-c3nc(-c4ccccc4C(F)(F)F)cs3)c1=O)C(=O)CC(C)(C)C2 [Compound 230] |
| < 300 | < 300 | CCc1cccc(CC)c1-n1c(CC(C)C)c(C(=O)N2CCNCC2)cc(-c2nc(-c3ccc(Cl)cc3)cs2)c1=O [Compound 231] |
| < 300 | 300 to 1000 | CCc1cccc(CC)c1-n1c(CC(C)C)c(C(=O)NCC(O)c2ccccc2)cc(-c2nc(-c3ccc(Cl)cc3)cs2)c1=O (stereo not shown) [Compound 232] |
| 300 to 1000 | 300 to 1000 | CCc1cccc(CC)c1-n1c2c(cc(-c3nc(-c4ccc(C)cc4)cs3)c1=O)C(=O)CC(C)(C)C2 [Compound 233] |
| 300 to 1000 | 1000 to 5000 | CCc1cccc(CC)c1-n1c(C(C)C)c(C(=O)N2CCN[C@@H](C)C2)cc(-c2nc(-c3ccc(Cl)cc3)cs2)c1=O [Compound 234] |
| < 300 | < 300 | CCc1cccc(CC)c1-n1c(CC(C)C)c(C(=O)N2CCNCC2)cc(-c2nc(-c3ccc(C#N)cc3)c(C)s2)c1=O [Compound 235] |
| 5000 to 20000 | 1000 to 5000 | CCc1cccc(CC)c1-n1c(CC)c(C(=O)O)cc(-c2nc(-c3ccc(Cl)cc3)cs2)c1=O [Compound 236] |
| 5000 to 20000 | 5000 to 20000 | CCc1cccc(CC)c1-n1c(C)c(C(=O)NC2CCC(N)CC2)cc(-c2nc(-c3ccc(Cl)cc3)cs2)c1=O (stereo not shown) [Compound 237] |
| 5000 to 20000 | 5000 to 20000 | CCc1cccc(CC)c1-n1c(CC(C)C)c(C(=O)N2CCNCC2)cc(-c2nc(-c3ccc(CN4CCOCC4)cc3)c(C)s2)c1=O [Compound 238] |
| 1000 to 5000 | 1000 to 5000 | CCc1cccc(CC)c1-n1c2c(cc(-c3nc(-c4cnn(C)c4)c(C)s3)c1=O)C(=O)CC(C)(C)C2 [Compound 239] |
| 1000 to 5000 | 5000 to 20000 | CCc1cccc(CC)c1-n1c2c(cc(-c3nc(-c4cccc(C)c4)cs3)c1=O)C(=O)CC(C)(C)C2 [Compound 240] |
| 300 to 1000 | 1000 to 5000 | CC1(C)CC(=O)c2cc(-c3nc(-c4ccc(Cl)cc4)cs3)c(=O)n(-c3ccccc3C(C)(C)C)c2C1 [Compound 241] |
| 1000 to 5000 | 1000 to 5000 | CCc1cccc(CC)c1-n1c(C)c(C(=O)N2CC(O)C2)cc(-c2nc(-c3ccc(Cl)cc3)cs2)c1=O [Compound 242] |
| 1000 to 5000 | 1000 to 5000 | CCc1cccc(CC)c1-n1c(CC(C)C)c(C(=O)N2CCCC2CO)cc(-c2nc(-c3ccc(Cl)cc3)cs2)c1=O (stereo not shown) [Compound 243] |
| 1000 to 5000 | 1000 to 5000 | COc1ccc(OC)c(-n2c3c(cc(-c4nc(-c5ccc(Cl)cc5)cs4)c2=O)C(=O)NCC3)c1 [Compound 244] |
| 1000 to 5000 | 1000 to 5000 | CCc1cccc(CC)c1-n1c(C)c(C(=O)N2CCC(N)C2)cc(-c2nc(-c3ccc(Cl)cc3)cs2)c1=O (stereo not shown) [Compound 245] |
| 1000 to 5000 | 1000 to 5000 | Cc1cccc(O)c1-n1c2c(cc(-c3nc(-c4ccc(Cl)cc4)cs3)c1=O)C(=O)CC(C)(C)C2 [Compound 246] |
